Experimental findings from patent publication US8088749B2, “Compositions and methods for treating cancer” (The Regents of the University of Michigan, priority 2007, dated 2012) are described below.

Entries after “also recorded” stand apart in the source; their conditions may differ.

Series [1] deals with ATDC. Briefly: ATDC localization after nuclear export inhibition, Panc-1 cells. The format is cell-based, human. Particulars: 1 ng/ml, 6 hours. As to the method:
In previous reports, ATDC was described as being predominately cytoplasmic in several cell types (see, e.g., Reymond A, et al., Embo J 2001; 20, 2140-2151; Brzoska P M, et al., Proc. Natl. Acad. Sci. USA 1995; 92, 7824-7828), conflicting with its potential role in the DNA damage response/DNA repair. In localization studies, it was determined that both endogenous ATDC and GFP-tagged ATDC had predominantly cytoplasmic localization, with some staining in the nucleus. To better understand how a protein with predominately cytoplasmic localization might be involved in the DNA response, wild type Panc-1 cells was treated with the nuclear export inhibitor leptomycin B (1 ng/ml) for 6 hours.

For series [2], the system named is ATDC. Briefly: Western blot analysis of ATDC after miRNA mimic transfection, BXPC-3 cells. It is filed as cell-based, human. The settings on record: 36 h after transfection with miRNA mimics. As to the method:
(§1) FIGS. 31A and B are L3.6PL cells, and FIGS. 31 C and D are BXPC3 cells. The lanes in these figures is as follows: 1(a). Lipofectamine2000 only; 2(b). Control miRNA; 3. miR-299-5p; 4. miR-185; 5. miR-522; 6. miR-506; 7. miR-765; 8. miR-362; 9. miR-515-5p; 10. miR-661; 11. miR-525; c. miR-34a; d. miR-34b; e. miR-34c; f. miR-150; g. miR-296; h. miR-500; and i. miR-650.
(§2) For testing the miRNAs for ATDC, Western blot analysis of pancreatic cancer cells transfected was carried out with the miRNAs by Lipofactamine2000. […] They are miR-34a, miR-34c, miR-296, miR-650, miR-299-5p, miR-185, miR-765, miR-522, and miR-362.
(In general: Immunoblotting shows a protein as a band on a membrane.)

Series [3] relates to ATDC. Briefly: ATDC gene expression in gastric cancer KATO III cells. It is filed as cell-based. Particulars: human gastric cancer KATO III cells. The procedure: Next, the miRNAs regulation of ATDC by qRT-PCR was examined. 24 hours after miRNA mimic transfection of the cancer cells (100 pmol per well in 6-well plates), ATDC mRNA levels were measured by qRT-PCR with TaqMan SYBR Green PCR System (Applied Biosystems). Briefly, total RNA was extracted from the transfected cells using TRIZOL (Invitrogen) according to the manufacturer's instructions. Reverse transcription was performed using a TaqMan Reverse Transcription Kit (Applied Biosystems). For qRT-PCR, 1 μl of gene primers with SYBR Green (Applied Biosystems) in 20 μl of reaction volume was applied. Primers for ATDC: Forward: 5′-[…]-3′ (SEQ ID NO:45), Reverse: 5′-[…]-3′ (SEQ ID NO:46).

Series [4] has as its system ATDC. Briefly: Western blot analysis of ATDC after miRNA mimic transfection, L3.6PL cells. The format is cell-based, human. Particulars: 36 h after transfection with miRNA mimics. The procedure:
as §1, §2

Series [5] has as its system Dvl-2. Briefly: Western blot after Dvl-2 shRNA transfection, MiaPaCa2 cells. It is filed as cell-based, human. The settings on record: transient transfection. As to the method:
(§3) FIG. 26. The oncogenic effects of ATDC are mediated by Dvl-2. (A. B) The effects of Dvl-2 shRNA 1 or 2 on b-catenin expression is shown in representative Western blots of HEK 293 (A) and MiaPaCa2 cells […] with or without ATDC overexpression. (C, D) TCF reporter activity was assessed in Dvl-2 shRNA 1 or 2-transfected HEK 293 (C) or Mia PaCa2 cells (D) with (+) or without (−) ATDC overexpression. The results from 3 separate experiments, performed in triplicate (*p<0.05 vs empty vector-transfected cells). (E. F) MTS proliferation assays in Dvl-2 shRNA1 or 2-transfected HEK 293 (E) and MiaPaCa2 (F) cells with (+) or without (−) ATDC overexpression (n=3, *p<0.05 vs wild type cells). (G) TCF reporter activity was measured in HEK 293, SW480, DLD-1 and HCT-116 cells with vector (white bars) or ATDC (black bars) transfection using the β-catenin responsive TOPFLASH reporter and the mutant control FOPFLASH reporter. The mean of the TOP/FOP ratio, as compared with the activity, for three independent experiments, performed in triplicate. […] The experiments were repeated three times and the data is expressed as the mean±SE. […] 48 hours after transfection, cell growth rates were assessed. […]

Series [6] relates to Dvl-2. Briefly: Western blot after Dvl-2 shRNA transfection, HEK 293 cells. The format is cell-based, human. The settings on record: transient transfection. The procedure: as §3

For the molecule `CCC(=C/[C@H](C)C/C=C/C(C)=C/[C@@H](C)C(=O)[C@@H](C)[C@H](O)[C@@H](C)C/C(C)=C/C(=O)O)/C=C/[C@@H]1OC(=O)C=C[C@@H]1C` [leptomycin B], the figures for the ATDC localization result with ATDC [1] and in the series with ATDC [1] (listed as leptomycin) were “ATDC accumulation in the nucleus” and “nuclear retention of ATDC”, respectively.
Take “miR-34a: miRNA mimic (UUGUUGGUCGAUUCUGUGACGGU; listed as RNA, chemistry not given here; listed as Homo sapiens)”: the ATDC protein levels entry with ATDC [2] and with ATDC [4] was “potently reduced” in each case. The ATDC gene expression entry in the series on ATDC [3] was “potently down-regulated; also recorded: significantly inhibited”.
Consider “miR-34c: miRNA mimic (CGUUAGUCGAUUGAUGUGACGGA; listed as RNA, chemistry not given here; listed as Homo sapiens)”, for which the ATDC protein levels entry with ATDC [2] and with ATDC [4] was “potently reduced” in each case.
Regarding “miR-185: miRNA mimic (CUUGACGGAAAGAGAGGU; listed as RNA, chemistry not given here; listed as Homo sapiens)”, the ATDC protein levels result in the series on ATDC [2] and with ATDC [4] was “potently reduced” in each case.
Turning to “miR-299-5p: miRNA mimic (UACAUACACCCUGCCAUUUGGU; listed as RNA, chemistry not given here; listed as Homo sapiens)”, the ATDC protein levels entry in the series on ATDC [2] and with ATDC [4] was “potently reduced” in each case.
For the molecule “miR-362: miRNA mimic (UGAGUGUGGAUCCAAGGUUCCUAA; listed as RNA, chemistry not given here; listed as Homo sapiens)”, the ATDC protein levels entry in the series on ATDC [2] and with ATDC [4] was “potently reduced” in each case.
With “miR-522: miRNA mimic (UUGUGAGAUUUCCCUUGGUAAAA; listed as RNA, chemistry not given here; listed as Homo sapiens)”, the ATDC protein levels result with ATDC [2] and in the series with ATDC [4] was “potently reduced” each time.
For the molecule “miR-650: miRNA mimic (CAGGACUCUCGCGACGGAGGA; listed as RNA, chemistry not given here; listed as Homo sapiens)”, the ATDC protein levels result in the series on ATDC [2] was “potently reduced”; in the series on ATDC [4], “potently reduced; also recorded: less potent”.
For “miR-765: miRNA mimic (GUAGUGGAAGGAAGAGGAGGU; listed as RNA, chemistry not given here; listed as Homo sapiens)”, in that order: “potently reduced” and “potently reduced; also recorded: less potent”.

B1: Dvl-2 shRNA 2: shRNA to Dvl-2, sense and anti-sense SEQ ID NOs: 9 and 10 (OriGene) (nucleic acid, listed as Homo sapiens)
sense: CACCGGACCGCATGTGGCTCAAGATCACCATCCCGAAGGATGGTGATCTTGAGCCACATGCGGTCC
antisense: AAAAGGACCGCAGTGGCTCAAGATCACCATCCTTCGGGATGGTGATCTTGAGCCACATGCGGTCC
modifications: the letters are possibly those of the target site
Take B1: the “levels of Dvl-2” value in the series with Dvl-2 [5] and in the series with Dvl-2 [6] was “effective” in each case.

B2: Dvl-2 shRNA 1: shRNA to Dvl-2, sense and anti-sense SEQ ID NOs: 7 and 8 (OriGene) (nucleic acid, listed as Homo sapiens)
sense: CACCTGTAGCTGCCTTTGTTACTCTATTTATTTCGAAAAATAAATAGAGTAACAAAGGCAGCTACA
antisense: AAAATGTAGCTGCCTTTGTTACTCTATTTATTTATTCGAAATAAATAGAGTAACAAAGGCAGCTACA
modifications: the letters are possibly those of the target site
Take B2: the “levels of Dvl-2” value in the series on Dvl-2 [5] and in the series on Dvl-2 [6] was “effective” in each case.
